US20220040129A1, “TREATMENT OF HYPERAMMONEMIA IN PATIENTS WITH RENAL INSUFFICIENCY” (RECORDATI S.p.A., priority 2019, published 2022)

How the values were obtained:
[1] = Nonclinical safety study in rats: exposure; conditions: rat, in vivo
[2] = test system: plasma ammonia; test: Retrospective review of NAGS deficiency patients: plasma ammonia levels; format: in vivo, human; conditions: for Plasma ammonia, Mean (SD) / Plasma ammonia, Median / Plasma ammonia, Range: NAGS deficiency patients
Method: Treatment with carglumic acid was divided in two regimens. For acute treatment, patients received a total daily dose of 100 mg/kg/day to 250 mg/kg/per day primarily administered in 2 to 4 divided doses for the first few days of treatment. For maintenance treatment, the dosage was reduced over time based on plasma ammonia level and clinical responses.
Short-term efficacy was evaluated using mean and median change in plasma ammonia levels from baseline to days 1 to 3. Persistence of efficacy was evaluated using long-term mean and median change in plasma ammonia level.
All 13 patients had abnormal plasma ammonia levels at baseline. […] Long-term efficacy was measured using the last reported plasma ammonia level for each of the 13 patients analyzed (median length of treatment was 6 years; range 1 to 16 years). The mean and median plasma ammonia levels were 23 micromol/L and 24 micromol/L, respectively, after a mean treatment duration of 8 years (Table 5).

[3] = target: CYP2C9 (Homo sapiens, UniProt P11712); test: In vitro CYP inhibition; format: in vitro ADME
[4] = test system: plasma NH3; test: Plasma NH3 reduction in Propensity Matching Score (PMS) Population; format: in vivo, human
Method: Episodes treated with extracorporeal detoxification (HD, HF, PD) during the timeframe of the analysis were excluded. There were 12 patients in each group, and NH3 levels were measured in 12- and 24-hour periods over 120 hours. […] The two populations analyzed included: 1) Population with baseline plasma NH3 levels over 100 micromol/L in non-neonate or 150 micromol/L in neonate; 2) Propensity Matching Score (PMS) Population. […] These rates of decrease were confirmed to be statistically significant.

[5] = target: T1, CYP1A2 (Homo sapiens, UniProt P05177); format: in vitro ADME
T1 sequence (P05177 1-516): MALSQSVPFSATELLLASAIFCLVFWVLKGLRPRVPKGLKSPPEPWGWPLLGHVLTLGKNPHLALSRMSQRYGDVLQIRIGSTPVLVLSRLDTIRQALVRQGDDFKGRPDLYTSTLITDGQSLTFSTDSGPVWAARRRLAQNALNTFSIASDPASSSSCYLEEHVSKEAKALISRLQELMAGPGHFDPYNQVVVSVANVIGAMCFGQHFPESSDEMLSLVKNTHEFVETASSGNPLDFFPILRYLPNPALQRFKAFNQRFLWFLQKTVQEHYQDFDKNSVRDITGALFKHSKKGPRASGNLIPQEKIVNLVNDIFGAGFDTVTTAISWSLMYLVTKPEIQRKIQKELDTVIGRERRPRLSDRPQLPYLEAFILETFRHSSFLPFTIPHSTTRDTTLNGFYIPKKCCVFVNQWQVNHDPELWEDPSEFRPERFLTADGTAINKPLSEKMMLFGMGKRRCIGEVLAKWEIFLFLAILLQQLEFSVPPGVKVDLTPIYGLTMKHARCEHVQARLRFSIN

[6] = Exposure previously observed in HVs following oral administration; conditions: human, in vivo, read-out: Highest AUC previously observed
[7] = Long-term (mean 8 years), last available value on treatment

CYP2C9, sequence (P11712 whole entry): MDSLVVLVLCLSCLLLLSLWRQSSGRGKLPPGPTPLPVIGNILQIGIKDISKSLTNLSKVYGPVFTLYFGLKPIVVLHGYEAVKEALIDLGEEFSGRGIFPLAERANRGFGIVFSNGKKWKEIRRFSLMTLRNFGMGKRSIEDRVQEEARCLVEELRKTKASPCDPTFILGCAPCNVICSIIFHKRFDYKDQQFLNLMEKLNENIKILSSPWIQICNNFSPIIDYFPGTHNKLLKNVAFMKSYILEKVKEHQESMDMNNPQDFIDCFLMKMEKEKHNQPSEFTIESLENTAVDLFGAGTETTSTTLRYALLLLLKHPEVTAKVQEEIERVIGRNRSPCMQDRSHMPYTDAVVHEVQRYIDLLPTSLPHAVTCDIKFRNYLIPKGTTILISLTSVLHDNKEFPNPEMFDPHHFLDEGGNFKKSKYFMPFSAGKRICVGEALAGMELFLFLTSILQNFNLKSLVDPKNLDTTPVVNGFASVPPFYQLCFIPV

Q: What does the source list for `NC(=O)N[C@@H](CCC(=O)O)C(=O)O` [carglumic acid, N-carbamoyl-L-glutamic acid]?
A: AUC ([1]; read-out: AUC, exposure previously observed): 258 µg·h/mL; Cmax ([1]; read-out: Cmax, exposure previously observed): 52 µg/mL; Differences in clinical response between adults and pediatric NAGS deficiency patients ([2]; 23 NAGS deficiency patients): no apparent differences; Plasma ammonia, Mean (SD) ([2]; Day 1 of treatment): 181 (358) micromole/L; Plasma ammonia, Median ([2]; Day 1 of treatment): 65 µmol/L; Plasma ammonia, Range ([2]; Day 1 of treatment): 25 to 1190 µmol/L; Plasma ammonia, Mean (SD) ([2]; Day 2 of treatment): 69 (78) micromole/L; Plasma ammonia, Median ([2]; Day 2 of treatment): 44 µmol/L; Plasma ammonia, Range ([2]; Day 2 of treatment): 11 to 255 µmol/L; Plasma ammonia, Mean (SD) ([2]; Day 3 of treatment): 27 (11) micromole/L; Plasma ammonia, Median ([2]; Day 3 of treatment): 25 µmol/L; Plasma ammonia, Range ([2]; Day 3 of treatment): 12 to 42 µmol/L; Plasma ammonia, Mean (SD) [2, 7]: 23 µmol/L; Plasma ammonia, Median [2, 7]: 24 µmol/L; Plasma ammonia, Range [2, 7]: 9 to 34 µmol/L; Plasma ammonia, Mean (SD) ([2]; Long-term (mean 8 years), last available value on treatment, listed as Carglumic Acid): 23 (7) micromole/L; Plasma ammonia levels by day 3 ([2]; patients for whom data were available, normal range 5 to 50 micromol/L): normal plasma ammonia levels were attained; Inhibition of CYP2C9 [3]: not an inhibitor; Reduction of mean plasma NH3 levels from baseline compared with NH3 Scav alone ([4]; 12 patients per group, over 120 hours): consistent and meaningful reduction; Median reduction of plasma NH3 ([4]; 24 hours post dose): 61%; Inhibition of CYP1A2 [5]: not an inhibitor; AUC [6]: 30.7 µg·h/mL
